Assay results from PubChem BioAssay (NCI).
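Tested at 5 concentrations; 48 h exposure; 96-well plates; endpoints linearly interpolated, else capped at highest concentration. GI50: concentration for 50% inhibition of growth. Definition used: TGI = concentration required for complete inhibition of growth.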

What was measured:
Assay in all cases: NCI anticancer screen, dose series, 48 h
[1] = test system: MOLT-4 leukemia
[2] = test system: A549 NSCLC
[3] = test system: SK-MEL-2 melanoma
[4] = test system: SW-620 colon
[5] = test system: OVCAR-3 ovarian
[6] = test system: SNB-75 CNS
[7] = test system: ACHN renal
[8] = test system: IGROV1 ovarian
[9] = test system: NCI-H522 lung
[10] = test system: MCF7 breast
[11] = test system: LOX IMVI melanoma
[12] = test system: MDA-MB-231 breast
[13] = test system: MALME-3M melanoma
[14] = test system: U251 CNS
[15] = test system: NCI-H226 lung
[16] = test system: RPMI-8226 leukemia
[17] = test system: M14 melanoma
[18] = test system: UO-31 renal
[19] = test system: DU-145 prostate
[20] = test system: MDA-MB-435
[21] = test system: K-562 leukemia
[22] = test system: TK-10 renal
[23] = test system: HCC-2998 colon
[24] = test system: A498 renal
[25] = test system: CCRF-CEM leukemia
[26] = test system: BT-549 breast
[27] = test system: T-47D breast
[28] = test system: NCI-H460 lung
[29] = test system: UACC-257 melanoma
[30] = test system: OVCAR-4 ovarian
[31] = test system: HCT-15 colon
[32] = test system: SF-295 CNS
[33] = test system: HL-60(TB) leukemia
[34] = test system: HOP-62 NSCLC
[35] = test system: SK-MEL-28 melanoma
[36] = test system: HCT-116 colon
[37] = test system: NCI-H23 lung
[38] = test system: SF-539 CNS
[39] = test system: OVCAR-8 ovarian
[40] = test system: SN12C renal
[41] = test system: KM12 colon
[42] = test system: CAKI-1 renal
[43] = test system: HS 578T breast
[44] = test system: SK-OV-3 ovarian
[45] = test system: COLO 205 colon
[46] = test system: NCI/ADR-RES ovarian
[47] = test system: SF-268 CNS
[48] = test system: PC-3 prostate
[49] = test system: SR leukemia
[50] = test system: SK-MEL-5 melanoma
[51] = test system: HT29 colon
[52] = test system: 786-0 renal
[53] = test system: RXF 393 renal
[54] = test system: SNB-19 CNS
[55] = test system: UACC-62 melanoma
[56] = test system: EKVX NSCLC
[57] = test system: HOP-92 NSCLC
[58] = test system: OVCAR-5 ovarian

For CC(=O)Nc1ccc2c(C3=C(c4cn(C)c5ccccc45)C(=O)NC3=O)cn(C)c2c1, which GI50 [1] is on record?
Its GI50 is 1.06 µM.

And the TGI [1]?
The TGI was over 25 µM.

What about the GI50 [2] of the same molecule?
The GI50 was 1.05 µM.

And the TGI [2]?
Its TGI is over 25 µM.

And the GI50 [3]?
The GI50 was 5.69 µM.

And the TGI [3]?
The TGI was over 25 µM.

What about the GI50 [4] of the same molecule?
The GI50 was 0.892 µM.

And the TGI [4]?
Its TGI is over 25 µM.

What about the GI50 [5] of the same molecule?
The GI50 was 0.737 µM.

And the TGI [5]?
Its TGI is 3.1 µM.

What about the GI50 [6] of the same molecule?
The GI50 was 0.215 µM.

What about the TGI [6] of the same molecule?
Its TGI is over 25 µM.

And the GI50 [7]?
Its GI50 is 1.42 µM.

And the TGI [7]?
The TGI was over 25 µM.

What about the GI50 [8] of the same molecule?
Its GI50 is 1.47 µM.

What about the TGI [8] of the same molecule?
Its TGI is over 25 µM.

And the GI50 [9]?
Its GI50 is 0.218 µM.

And the TGI [9]?
The TGI was 1.31 µM.

What about the GI50 [10] of the same molecule?
Its GI50 is 0.294 µM.

What about the TGI [10] of the same molecule?
The TGI was over 25 µM.

And the GI50 [11]?
Its GI50 is 0.634 µM.

And the TGI [11]?
Its TGI is over 25 µM.

What about the GI50 [12] of the same molecule?
Its GI50 is 0.821 µM.

What about the TGI [12] of the same molecule?
The TGI was over 25 µM.

What about the GI50 [13] of the same molecule?
Its GI50 is over 25 µM.

And the TGI [13]?
Its TGI is over 25 µM.

And the GI50 [14]?
The GI50 was 0.889 µM.

And the TGI [14]?
Its TGI is over 25 µM.

And the GI50 [15]?
The GI50 was over 6.26 µM.

What about the TGI [15] of the same molecule?
The TGI was over 25 µM.

And the GI50 [16]?
Its GI50 is 1.11 µM.

And the TGI [16]?
The TGI was over 25 µM.

What about the GI50 [17] of the same molecule?
The GI50 was 0.945 µM.

And the TGI [17]?
Its TGI is over 25 µM.

And the GI50 [18]?
The GI50 was over 9.45 µM.

What about the TGI [18] of the same molecule?
The TGI was over 25 µM.

And the GI50 [19]?
The GI50 was 1.01 µM.

What about the TGI [19] of the same molecule?
The TGI was over 24.2 µM.

What about the GI50 [20] of the same molecule?
Its GI50 is 0.118 µM.

What about the TGI [20] of the same molecule?
Its TGI is 0.842 µM.

And the GI50 [21]?
The GI50 was 0.762 µM.

What about the TGI [21] of the same molecule?
Its TGI is over 25 µM.

What about the GI50 [22] of the same molecule?
The GI50 was over 25 µM.

And the TGI [22]?
The TGI was over 25 µM.

And the GI50 [23]?
Its GI50 is 0.89 µM.

What about the TGI [23] of the same molecule?
Its TGI is over 25 µM.

What about the GI50 [24] of the same molecule?
Its GI50 is 0.386 µM.

And the TGI [24]?
The TGI was 12.8 µM.

And the GI50 [25]?
The GI50 was 0.0773 µM.

What about the TGI [25] of the same molecule?
The TGI was over 25 µM.

And the GI50 [26]?
The GI50 was over 25 µM.

What about the TGI [26] of the same molecule?
The TGI was over 25 µM.

What about the GI50 [27] of the same molecule?
Its GI50 is over 25 µM.

What about the TGI [27] of the same molecule?
The TGI was over 25 µM.

And the GI50 [28]?
The GI50 was 0.881 µM.

And the TGI [28]?
Its TGI is over 25 µM.

What about the GI50 [29] of the same molecule?
The GI50 was over 14.9 µM.

And the TGI [29]?
Its TGI is over 25 µM.

And the GI50 [30]?
The GI50 was 1.28 µM.

And the TGI [30]?
Its TGI is over 25 µM.

And the GI50 [31]?
Its GI50 is 1.24 µM.

What about the TGI [31] of the same molecule?
Its TGI is over 25 µM.

And the GI50 [32]?
Its GI50 is 0.552 µM.

And the TGI [32]?
The TGI was over 5.63 µM.

And the GI50 [33]?
The GI50 was 0.921 µM.

What about the TGI [33] of the same molecule?
Its TGI is over 25 µM.

What about the GI50 [34] of the same molecule?
Its GI50 is 1.15 µM.

What about the TGI [34] of the same molecule?
Its TGI is over 25 µM.

And the GI50 [35]?
Its GI50 is over 5.94 µM.

And the TGI [35]?
The TGI was over 25 µM.

What about the GI50 [36] of the same molecule?
The GI50 was 0.697 µM.

What about the TGI [36] of the same molecule?
The TGI was over 16.6 µM.

And the GI50 [37]?
Its GI50 is 1.16 µM.

What about the TGI [37] of the same molecule?
The TGI was over 25 µM.

What about the GI50 [38] of the same molecule?
The GI50 was 0.376 µM.

What about the TGI [38] of the same molecule?
Its TGI is 1.4 µM.

What about the GI50 [39] of the same molecule?
Its GI50 is 0.9 µM.

What about the TGI [39] of the same molecule?
The TGI was over 25 µM.

And the GI50 [40]?
Its GI50 is 1.25 µM.

What about the TGI [40] of the same molecule?
The TGI was over 25 µM.

What about the GI50 [41] of the same molecule?
The GI50 was 0.749 µM.

What about the TGI [41] of the same molecule?
The TGI was over 15 µM.

And the GI50 [42]?
Its GI50 is 2.08 µM.

And the TGI [42]?
The TGI was over 25 µM.

What about the GI50 [43] of the same molecule?
The GI50 was 0.443 µM.

What about the TGI [43] of the same molecule?
Its TGI is over 25 µM.

What about the GI50 [44] of the same molecule?
The GI50 was 1.53 µM.

And the TGI [44]?
Its TGI is over 25 µM.

And the GI50 [45]?
The GI50 was 0.691 µM.

What about the TGI [45] of the same molecule?
Its TGI is 1.72 µM.

What about the GI50 [46] of the same molecule?
Its GI50 is 13.9 µM.

What about the TGI [46] of the same molecule?
Its TGI is over 25 µM.

And the GI50 [47]?
Its GI50 is 1.36 µM.

And the TGI [47]?
The TGI was over 25 µM.

And the GI50 [48]?
Its GI50 is 0.802 µM.

And the TGI [48]?
The TGI was over 25 µM.

And the GI50 [49]?
Its GI50 is 0.363 µM.

And the TGI [49]?
Its TGI is over 25 µM.

And the GI50 [50]?
Its GI50 is 0.637 µM.

What about the TGI [50] of the same molecule?
Its TGI is 3.12 µM.

What about the GI50 [51] of the same molecule?
Its GI50 is 0.833 µM.

What about the TGI [51] of the same molecule?
Its TGI is over 25 µM.

What about the GI50 [52] of the same molecule?
The GI50 was 2.09 µM.

And the TGI [52]?
Its TGI is over 25 µM.

What about the GI50 [53] of the same molecule?
Its GI50 is 0.512 µM.

And the TGI [53]?
Its TGI is over 7.02 µM.

And the GI50 [54]?
The GI50 was 5.13 µM.

And the TGI [54]?
Its TGI is over 25 µM.

And the GI50 [55]?
Its GI50 is 1.3 µM.

And the TGI [55]?
The TGI was over 25 µM.

What does the source list for c1ccc(CSSSCc2ccccc2)cc1?
TGI [1]: > 100 µM; TGI [2]: > 100 µM; TGI [3]: 8.36 µM; TGI [4]: > 51.9 µM; TGI [56]: > 100 µM; TGI [5]: 2.98 µM; TGI [6]: 39.4 µM; TGI [7]: 29.1 µM; TGI [8]: > 90.9 µM; TGI [9]: 3.33 µM; TGI [10]: > 42.1 µM; TGI [11]: 17.4 µM; TGI [12]: 23.7 µM; TGI [57]: > 92.7 µM; TGI [13]: > 100 µM; TGI [14]: 17.1 µM; TGI [16]: 10.8 µM; TGI [17]: > 100 µM; TGI [18]: 37.1 µM; TGI [19]: 4.97 µM; TGI [20]: 2.83 µM; TGI [22]: > 73.9 µM; TGI [23]: 17.8 µM; TGI [24]: > 100 µM; TGI [26]: 19.8 µM; TGI [58]: 41.2 µM; TGI [27]: > 64.5 µM; TGI [28]: 16.2 µM; TGI [29]: > 95.4 µM; TGI [30]: 38 µM; TGI [31]: > 100 µM; TGI [32]: 49.8 µM; TGI [33]: 3.22 µM; TGI [34]: 5.03 µM; TGI [35]: > 100 µM; TGI [36]: 12.1 µM; TGI [37]: > 48.5 µM; TGI [39]: > 41.2 µM; TGI [40]: 18 µM; TGI [41]: > 100 µM; TGI [42]: 22.6 µM; TGI [43]: > 31 µM; TGI [44]: 22.9 µM; TGI [45]: 11.6 µM; TGI [46]: 9.78 µM; TGI [47]: 31.4 µM; TGI [48]: > 100 µM; TGI [49]: 87.3 µM; TGI [50]: 15.3 µM; TGI [51]: 19.6 µM; TGI [52]: 12.8 µM; TGI [53]: 14.8 µM; TGI [54]: > 100 µM; TGI [55]: 16.1 µM
